This note sets out measurements from patent publication US9611249B2, “1H-indazole-3-carboxamide compounds as glycogen synthase kinase 3 beta inhibitors” (AZIENDE CHIMICHE RIUNITE ANGELINI FRANCESCO A.C.R.A.F. …, priority 2012, dated 2017).

Test [1] deals with DYRK1a (h) (Homo sapiens (Human), UniProt Q13627). As to the kind of experiment: Kinase selectivity panel: DYRK1a (h). The note with it: 10 μM in duplicate, read-out: % inhibition of control values. Type of test: biochemical. How it is done:
(§1) (a) Compounds 1 and 2 were tested against a panel of 60 kinases in order to assess their selectivity. The assays were chosen taking into consideration the diversity of assay families.
(§2) Tested kinases were representative of following kinase sub-families: • protein-serine/threonine kinases; • protein-tyrosine kinases; • other kinases; and • atypical kinases.
(§3) Human recombinant kinases were incubated in the presence of specific peptide substrates plus ATP for different times (10, 15, 30, 60 or 90 minutes) at 22° C. Phosphorylated substrate was detected by LANCE or HTRF technology (CISBIO, MA, USA). The compounds were tested at 10 μM in duplicate.
(§4) The results are expressed as a percentage of inhibition of control specific activity obtained in the presence of the test compounds and are reported in the following Table 5.
(§5) (b) Compounds 3, 8, 29 and 31 were tested against the same panel of 60 kinases under the same conditions described above for compounds 1 and 2.
(§6) The results are expressed as a percent of inhibition of control specific activity obtained in the presence of the test compounds and are reported in the following Table 6.

In test [2] the target is NEK1 (h) (Homo sapiens (Human), UniProt Q96PY6). The test is described as follows: Kinase selectivity panel: NEK1 (h). The format is biochemical. The conditions noted are these: 10 μM in duplicate, read-out: % inhibition of control values. How it is done:
as §1, §2, §3, §4, §5, §6

The target in test [3] is Src kinase (h) (Homo sapiens (Human), UniProt P12931). As to the kind of experiment: Kinase selectivity panel: Src kinase (h). Type of test: biochemical. The conditions noted are these: 10 μM in duplicate, read-out: % inhibition of control values. As to the method: as §1, §2, §3, §4, §5, §6
Sequence of Src kinase (h) (P12931 whole entry, looked up): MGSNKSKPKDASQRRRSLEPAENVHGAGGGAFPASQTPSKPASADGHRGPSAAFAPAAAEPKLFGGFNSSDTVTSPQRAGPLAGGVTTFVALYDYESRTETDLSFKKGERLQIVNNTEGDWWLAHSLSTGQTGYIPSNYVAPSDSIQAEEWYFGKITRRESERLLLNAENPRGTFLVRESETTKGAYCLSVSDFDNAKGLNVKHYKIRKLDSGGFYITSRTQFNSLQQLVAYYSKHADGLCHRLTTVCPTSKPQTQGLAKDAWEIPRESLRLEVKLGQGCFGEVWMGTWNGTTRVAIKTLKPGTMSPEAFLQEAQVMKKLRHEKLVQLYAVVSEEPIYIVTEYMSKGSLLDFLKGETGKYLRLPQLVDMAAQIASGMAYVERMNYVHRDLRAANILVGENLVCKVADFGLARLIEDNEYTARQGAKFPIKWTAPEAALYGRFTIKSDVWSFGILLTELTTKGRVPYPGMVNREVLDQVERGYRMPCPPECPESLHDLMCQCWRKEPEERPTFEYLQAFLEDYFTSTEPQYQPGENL
Test [4] deals with GSK3beta (h) (Homo sapiens (Human), UniProt P49841). As to the kind of experiment: Kinase selectivity panel: GSK3beta (h). Type of test: biochemical. The conditions noted are these: for inhibition at 10 µM: GSK3beta (h), 10 μM in duplicate, read-out: % inhibition of control values; for selectivity for GSK-3β compared to the other kinases of the panel: panel of 60 kinases, 10 μM, conclusion in words. As to the method: as §1, §2, §3, §4, §6
Sequence of GSK3beta (h) (P49841 whole entry): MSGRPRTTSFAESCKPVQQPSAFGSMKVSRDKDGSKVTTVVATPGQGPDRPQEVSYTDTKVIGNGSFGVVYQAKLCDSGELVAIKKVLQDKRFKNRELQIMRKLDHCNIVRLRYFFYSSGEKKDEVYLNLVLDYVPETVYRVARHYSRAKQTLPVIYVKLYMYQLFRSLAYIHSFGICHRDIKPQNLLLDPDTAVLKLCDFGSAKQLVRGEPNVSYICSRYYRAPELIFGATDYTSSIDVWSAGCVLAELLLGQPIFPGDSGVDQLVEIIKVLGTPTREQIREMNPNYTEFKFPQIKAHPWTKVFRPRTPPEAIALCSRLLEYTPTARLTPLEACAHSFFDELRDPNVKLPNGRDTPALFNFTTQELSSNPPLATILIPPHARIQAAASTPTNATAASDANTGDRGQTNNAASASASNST

Test [5] deals with MEK1/MAP2K1 (h) (Homo sapiens (Human), UniProt Q02750). As to the kind of experiment: Kinase selectivity panel: MEK1/MAP2K1 (h). Type of test: biochemical. The note with it: 10 μM in duplicate, read-out: % inhibition of control values. As to the method: as §1, §2, §3, §4, §5, §6
Sequence of MEK1/MAP2K1 (h) (Q02750 whole entry): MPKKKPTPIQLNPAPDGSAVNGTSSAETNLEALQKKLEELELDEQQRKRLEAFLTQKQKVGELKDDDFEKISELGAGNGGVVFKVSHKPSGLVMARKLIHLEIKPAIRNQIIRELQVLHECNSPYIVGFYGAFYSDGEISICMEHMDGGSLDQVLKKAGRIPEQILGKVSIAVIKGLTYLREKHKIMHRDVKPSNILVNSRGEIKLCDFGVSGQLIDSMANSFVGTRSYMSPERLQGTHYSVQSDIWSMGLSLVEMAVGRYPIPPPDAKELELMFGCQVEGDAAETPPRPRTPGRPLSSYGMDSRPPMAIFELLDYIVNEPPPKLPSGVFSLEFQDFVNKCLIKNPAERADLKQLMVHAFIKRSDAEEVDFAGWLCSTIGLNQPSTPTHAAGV
The target of test [6] is CDK2 (h) (cycA) (Homo sapiens (Human), UniProt P24941). The test is described as follows: Kinase selectivity panel: CDK2 (h) (cycA). The format is biochemical. The conditions noted are these: 10 μM in duplicate, read-out: % inhibition of control values. How it is done: as §1, §2, §3, §4, §5, §6
The target of test [7] is HGK (h) (MAP4K4) (Homo sapiens (Human), UniProt O95819). The test is described as follows: Kinase selectivity panel: HGK (h) (MAP4K4). Type of test: biochemical. The note with it: 10 μM in duplicate, read-out: % inhibition of control values. As to the method:
as §1, §2, §3, §4, §5, §6

Test [8] deals with IRK (h) (InsR) (Homo sapiens (Human), UniProt P06213). The test is described as follows: Kinase selectivity panel: IRK (h) (InsR). The note with it: 10 μM in duplicate, read-out: % inhibition of control values. Type of test: biochemical. How it is done: as §1, §2, §3, §4, §5, §6
Sequence of IRK (h) (InsR) (P06213 28-1382): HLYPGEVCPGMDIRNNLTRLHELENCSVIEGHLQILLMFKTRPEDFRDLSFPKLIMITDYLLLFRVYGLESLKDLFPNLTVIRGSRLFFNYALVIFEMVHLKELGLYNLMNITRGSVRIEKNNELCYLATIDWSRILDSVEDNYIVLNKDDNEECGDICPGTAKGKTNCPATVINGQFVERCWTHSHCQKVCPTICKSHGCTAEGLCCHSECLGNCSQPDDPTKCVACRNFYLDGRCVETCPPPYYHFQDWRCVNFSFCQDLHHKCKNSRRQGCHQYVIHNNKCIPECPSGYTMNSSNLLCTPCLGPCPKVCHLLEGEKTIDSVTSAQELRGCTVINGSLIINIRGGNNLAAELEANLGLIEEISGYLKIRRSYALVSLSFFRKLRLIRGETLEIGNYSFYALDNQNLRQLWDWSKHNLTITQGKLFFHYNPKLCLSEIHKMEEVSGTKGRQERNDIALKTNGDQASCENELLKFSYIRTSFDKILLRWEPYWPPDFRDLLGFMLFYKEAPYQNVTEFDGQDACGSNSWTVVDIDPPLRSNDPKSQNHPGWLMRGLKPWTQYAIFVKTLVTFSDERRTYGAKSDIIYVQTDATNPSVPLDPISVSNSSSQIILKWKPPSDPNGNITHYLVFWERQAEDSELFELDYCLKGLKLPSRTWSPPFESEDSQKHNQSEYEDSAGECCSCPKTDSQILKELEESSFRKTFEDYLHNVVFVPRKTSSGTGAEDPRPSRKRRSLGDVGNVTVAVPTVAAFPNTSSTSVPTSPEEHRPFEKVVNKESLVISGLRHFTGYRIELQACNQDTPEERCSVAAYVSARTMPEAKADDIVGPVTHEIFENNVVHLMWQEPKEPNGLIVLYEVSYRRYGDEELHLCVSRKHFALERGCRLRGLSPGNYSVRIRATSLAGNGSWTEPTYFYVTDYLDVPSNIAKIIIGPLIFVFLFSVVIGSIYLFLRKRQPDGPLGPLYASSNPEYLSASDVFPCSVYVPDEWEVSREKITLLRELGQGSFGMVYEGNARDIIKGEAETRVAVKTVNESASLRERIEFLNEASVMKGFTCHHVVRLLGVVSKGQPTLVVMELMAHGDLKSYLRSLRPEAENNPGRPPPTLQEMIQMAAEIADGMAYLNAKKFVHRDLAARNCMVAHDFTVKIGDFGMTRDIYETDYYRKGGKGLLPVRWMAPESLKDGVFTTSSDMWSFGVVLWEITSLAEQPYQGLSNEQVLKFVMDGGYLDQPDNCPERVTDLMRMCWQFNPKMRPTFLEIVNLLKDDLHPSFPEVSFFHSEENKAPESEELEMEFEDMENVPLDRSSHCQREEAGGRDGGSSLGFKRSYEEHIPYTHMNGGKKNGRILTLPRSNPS
Test [9] concerns the target TAOK2 (TAO1) (h) (Homo sapiens (Human), UniProt Q9UL54). The test is described as follows: Kinase selectivity panel: TAOK2 (TAO1) (h). The format is biochemical. The conditions noted are these: 10 μM in duplicate, read-out: % inhibition of control values. As to the method: as §1, §2, §3, §4, §5, §6
Test [10] deals with TRKA (h) (Homo sapiens (Human), UniProt P04629). The test is described as follows: Kinase selectivity panel: TRKA (h). The format is biochemical. The note with it: 10 μM in duplicate, read-out: % inhibition of control values. How it is done:
as §1, §2, §3, §4, §5, §6

Test [11] deals with PCTAIRE1 kinase (h) (Homo sapiens (Human), UniProt Q00536). As to the kind of experiment: Kinase selectivity panel: PCTAIRE1 kinase (h). Type of test: biochemical. The note with it: 10 μM in duplicate, read-out: % inhibition of control values. How it is done:
as §1, §2, §3, §4, §5, §6

The target in test [12] is CDK5/p35 (h) (Homo sapiens (Human), UniProt Q00535). The test is described as follows: Kinase selectivity panel: CDK5/p35 (h). The format is biochemical. The conditions noted are these: 10 μM in duplicate, read-out: % inhibition of control values. As to the method:
as §1, §2, §3, §4, §5, §6

Test [13] deals with ERK1 (h) (Homo sapiens (Human), UniProt P27361). As to the kind of experiment: Kinase selectivity panel: ERK1 (h). The format is biochemical. The conditions noted are these: 10 μM in duplicate, read-out: % inhibition of control values. As to the method:
as §1, §2, §3, §4, §5, §6

In test [14] the target is ERK2 (h) (P42mapk) (Homo sapiens (Human), UniProt P28482). The test is described as follows: Kinase selectivity panel: ERK2 (h) (P42mapk). Type of test: biochemical. The note with it: 10 μM in duplicate, read-out: % inhibition of control values. As to the method: as §1, §2, §3, §4, §5, §6
Test [15] concerns the target smMLCK (h) (MYLK) (Homo sapiens (Human), UniProt Q15746). As to the kind of experiment: Kinase selectivity panel: smMLCK (h) (MYLK). Type of test: biochemical. The note with it: 10 μM in duplicate, read-out: % inhibition of control values. As to the method: as §1, §2, §3, §4, §5, §6
Test [16] has as its target CDC2/CDK1 (h) (cycB) (Homo sapiens (Human), UniProt P06493). The test is described as follows: Kinase selectivity panel: CDC2/CDK1 (h) (cycB). The format is biochemical. The conditions noted are these: 10 μM in duplicate, read-out: % inhibition of control values. As to the method:
as §1, §2, §3, §4, §5, §6

In test [17] the target is human GSK-3β (Homo sapiens (Human), UniProt P49841). As to the kind of experiment: GSK-3β LanthaScreen TR-FRET Eu Kinase binding and displacement assay. The conditions noted are these: compounds 16 to 41, LanthaScreen TR-FRET binding and displacement assay, five concentrations 100 μM to 10 nM. How it is done: In a second assay, the same compounds were assayed at five concentrations ranging from 100 μM to 10 nM with ten-fold dilutions in duplicate. Compounds 1 to 15 were tested using the same first assay, compounds 16 to 41 were tested in another assay based on the binding and displacement of AlexaFluor® 647 labeled, ATP-competitive Kinase inhibitor scaffold using LanthaScreen™ TR-FRET technology Eu Kinase assay packet according to manufacturer's instruction (Life Technologies, Italy).
Sequence of human GSK-3β (P49841 whole entry): as the sequence (P49841 whole entry) above
The IC50 values (concentration causing a half maximal inhibition of control specific activity), reported in table 4, were determined by non-linear regression analysis of the inhibition curves generated with mean replicate values using Hill equation curve fitting.
For orientation: TR-FRET usually uses a lanthanide donor and a delayed reading to cut background.

Sequence of CDK5/p35 (h) (Q00535 whole entry): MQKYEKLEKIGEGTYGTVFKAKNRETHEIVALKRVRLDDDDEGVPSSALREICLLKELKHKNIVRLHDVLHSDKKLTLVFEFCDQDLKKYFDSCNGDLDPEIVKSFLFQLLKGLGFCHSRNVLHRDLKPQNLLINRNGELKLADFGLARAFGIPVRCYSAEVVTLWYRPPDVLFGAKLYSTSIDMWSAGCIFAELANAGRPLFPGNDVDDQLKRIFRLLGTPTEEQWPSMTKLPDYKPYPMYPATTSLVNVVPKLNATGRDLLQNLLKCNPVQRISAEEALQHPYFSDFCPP
Sequence of CDK5/p35 (h) (Q15078 whole entry partner): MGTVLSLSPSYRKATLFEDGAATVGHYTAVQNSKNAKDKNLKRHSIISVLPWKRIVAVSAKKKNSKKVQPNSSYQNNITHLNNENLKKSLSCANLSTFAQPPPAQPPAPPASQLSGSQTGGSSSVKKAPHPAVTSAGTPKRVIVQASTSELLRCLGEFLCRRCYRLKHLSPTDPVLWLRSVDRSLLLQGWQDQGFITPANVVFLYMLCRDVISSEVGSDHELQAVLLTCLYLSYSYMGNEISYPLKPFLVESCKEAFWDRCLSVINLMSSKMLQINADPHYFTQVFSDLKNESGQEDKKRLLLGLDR
Sequence of ERK1 (h) (P27361 whole entry): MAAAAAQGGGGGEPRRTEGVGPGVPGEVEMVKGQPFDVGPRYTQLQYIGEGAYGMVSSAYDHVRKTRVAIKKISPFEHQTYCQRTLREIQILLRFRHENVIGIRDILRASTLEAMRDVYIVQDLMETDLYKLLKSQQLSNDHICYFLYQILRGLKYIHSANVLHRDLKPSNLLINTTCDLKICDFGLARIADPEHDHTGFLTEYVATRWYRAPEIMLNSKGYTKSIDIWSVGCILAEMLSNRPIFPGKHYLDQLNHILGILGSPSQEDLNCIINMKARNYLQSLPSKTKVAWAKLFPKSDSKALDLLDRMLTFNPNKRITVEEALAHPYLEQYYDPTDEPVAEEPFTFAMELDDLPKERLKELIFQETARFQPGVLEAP
Sequence of TAOK2 (TAO1) (h) (Q9UL54 whole entry): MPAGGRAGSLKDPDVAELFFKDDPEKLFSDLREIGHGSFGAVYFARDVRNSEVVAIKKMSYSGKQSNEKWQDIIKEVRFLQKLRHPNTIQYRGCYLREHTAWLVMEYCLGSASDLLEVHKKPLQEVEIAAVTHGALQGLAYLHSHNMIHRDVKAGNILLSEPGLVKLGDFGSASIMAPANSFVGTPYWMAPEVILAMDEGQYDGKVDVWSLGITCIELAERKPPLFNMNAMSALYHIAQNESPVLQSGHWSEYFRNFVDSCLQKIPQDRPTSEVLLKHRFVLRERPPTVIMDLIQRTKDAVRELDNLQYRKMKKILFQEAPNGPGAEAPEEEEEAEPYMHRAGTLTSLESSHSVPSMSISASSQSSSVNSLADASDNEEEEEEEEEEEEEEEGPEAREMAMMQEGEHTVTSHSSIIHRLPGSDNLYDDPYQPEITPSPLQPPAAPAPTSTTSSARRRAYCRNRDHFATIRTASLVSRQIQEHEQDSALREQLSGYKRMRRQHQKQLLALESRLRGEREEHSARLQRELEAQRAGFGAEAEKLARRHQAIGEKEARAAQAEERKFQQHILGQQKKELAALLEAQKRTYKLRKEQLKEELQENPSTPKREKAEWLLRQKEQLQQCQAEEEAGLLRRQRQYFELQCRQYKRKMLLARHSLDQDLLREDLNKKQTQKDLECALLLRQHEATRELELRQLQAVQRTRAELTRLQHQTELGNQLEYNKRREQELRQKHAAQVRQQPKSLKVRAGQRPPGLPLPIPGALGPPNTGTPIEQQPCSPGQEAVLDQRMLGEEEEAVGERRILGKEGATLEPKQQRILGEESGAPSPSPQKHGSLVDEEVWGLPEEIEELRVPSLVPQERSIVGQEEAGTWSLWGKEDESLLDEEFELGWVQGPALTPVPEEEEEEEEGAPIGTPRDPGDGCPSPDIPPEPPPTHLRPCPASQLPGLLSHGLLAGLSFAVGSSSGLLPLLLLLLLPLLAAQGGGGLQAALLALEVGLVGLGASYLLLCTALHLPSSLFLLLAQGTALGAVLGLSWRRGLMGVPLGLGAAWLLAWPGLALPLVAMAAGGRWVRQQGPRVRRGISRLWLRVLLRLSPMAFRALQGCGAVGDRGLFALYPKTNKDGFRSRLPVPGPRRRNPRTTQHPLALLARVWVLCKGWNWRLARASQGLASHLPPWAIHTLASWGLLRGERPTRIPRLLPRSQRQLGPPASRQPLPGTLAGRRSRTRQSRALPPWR

As usually defined, the inhibition is the change of the read-out against control, counted positive when it falls. As usually defined, the IC50 is the concentration needed to halve the response being measured. Low values mean higher potency, high ones lower potency. `CCc1ccc2[nH]nc(C(=O)NCC3CCN(CC(=O)O)CC3)c2c1` [Compound 31, [4-({[(5-ethyl-1H-indazol-3-yl)carbonyl]amino}methyl)piperidin-1-yl]acetic acid]: the inhibition at 10 µM in [1] came to 77%; in test [2], 0%; in test [3] it was 9%; in [4], 89%; in test [5], 9%; in test [6], 35%. Besides, the inhibition at 10 µM in test [7] came to 10%; in test [8] it was 0%; in test [9], 9%; in test [10] it was 0%; in test [11] it was 27%; in test [12], 16%. Besides, the inhibition at 10 µM worked out at 1% in test [13], 9% in [14], 1% in test [15] and 10% in test [16]. Also, the “selectivity for GSK-3β compared to the other kinases of the panel” value in test [4] was “good selectivity profile”. The same compound had an IC50 in test [17] of 960 nM.
Take `O=C(O)CN1CCC(CNC(=O)c2n[nH]c3ccc(-c4cccc(F)c4F)cc23)CC1` [Compound 29, {4-[({[5-(2,3-difluorophenyl)-1H-indazol-3-yl]carbonyl}amino)methyl]piperidin-1-yl}acetic acid]: the inhibition at 10 µM came to 100% in test [1]; 9% in test [2]; 0% in test [3]; 100% in test [4]; 75% in test [5]; 77% in test [6]. For the same compound, the inhibition at 10 µM in test [7] was found to be 71%; in test [8], 0%; in test [9], 61%; in test [10], 3%; in test [11] it was 49%; in test [12] it was 77%. Besides, the inhibition at 10 µM is 61% in test [13], 67% in [14], 17% in test [15] and 80% in [16]. For the same compound, in test [4], the “selectivity for GSK-3β compared to the other kinases of the panel” value was “good affinity to GSK-3β when compared to most of other kinases of the same family”. In test [17], this compound displayed an IC50 of 30 nM.
